In ChEMBL document CHEMBL1131553, “Orally active indole N-oxide PDE4 inhibitors” (Bioorg Med Chem Lett, 1998):

Legend:
Mus musculus [1] = assay: In vivo inhibition of LPS induced tumor necrosis factor (TNF-alpha) in mice at 50 mg/kg; assay type: functional
Phosphodiesterase 4 [2] = biological target: T1, Phosphodiesterase 4 (Homo sapiens, UniProt P27815+Q08499+Q07343+Q08493); assay: Inhibition of phosphodiesterase type IV (PDE4) activity; assay type: protein assay
Phosphodiesterase 4 [3] = biological target: T1, Phosphodiesterase 4; assay type: protein assay
Mus musculus [4] = assay: In vivo inhibition of LPS induced tumor necrosis factor (TNF-alpha) in mice at 10 mg/kg; assay type: functional
Mus musculus [5] = assay: In vivo inhibition of LPS induced tumor necrosis factor (TNF-alpha) in mice; assay type: functional
Canis familiaris [6] = assay: Emetic effect in dogs on intravenous dose (3/4); assay type: functional; settings: Canis lupus familiaris
[7] = Oral bioavailability in mouse; assay type: ADME, organism-based; settings: in vivo
[8] = Time taken to reach maximum concentration in plasma upon oral administration in mouse; assay type: ADME, organism-based
[9] = Area under curve by ioral administration in mouse; assay type: ADME, organism-based; settings: in vivo, po
[10] = Half-life by oral administration in mouse; assay type: ADME, organism-based; settings: in vivo
[11] = Maximum concentration in plasma upon oral administration in mouse; assay type: ADME, organism-based; settings: read-out: Cp max
[12] = Value distribution upon iv administration in mouse; assay type: ADME, organism-based; settings: in vivo, read-out: Vdss
[13] = Plasma clearance value upon iv administration in mouse; assay type: ADME, organism-based
[14] = Half-life by iv administration in mouse; assay type: ADME, organism-based; settings: in vivo
[15] = Area under curve by iv administration in mouse; assay type: ADME, organism-based; settings: in vivo
Canis familiaris [16] = assay: Emetic effect in dogs on intravenous dose (0/4); assay type: functional; settings: Canis lupus familiaris
Rattus norvegicus [17] = assay: Percentage change in body weight of rats in streptococcal cell wall-washed arthritis model at 30.0 mg/kg peroral dose; assay type: functional; settings: route oral
Rattus norvegicus [18] = assay: Streptococcal cell wall-washed arthritis model in rats at 10.0 mg/kg peroral dose; assay type: functional; settings: route oral
Rattus norvegicus [19] = assay: Inhibition of streptococcal cell wall-washed arthritis model in rats at 10.0 mg/kg peroral dose; assay type: functional; settings: route oral
Rattus norvegicus [20] = assay: Streptococcal cell wall-washed arthritis model in rats at 3.0 mg/kg peroral dose; assay type: functional; settings: route oral
Rattus norvegicus [21] = assay: Inhibition of streptococcal cell wall-washed arthritis model in rats at 3.0 mg/kg peroral dose; assay type: functional; settings: route oral
Rattus norvegicus [22] = assay: Inhibition of streptococcal cell wall-washed arthritis model in rats at 30.0 mg/kg peroral dose; assay type: functional; settings: route oral
Rattus norvegicus [23] = assay: Streptococcal cell wall-washed arthritis model in rats at 30.0 mg/kg peroral dose; assay type: functional; settings: route oral
Rattus norvegicus [24] = assay: Percentage change in body weight of rats in streptococcal cell wall-washed arthritis model at 3.0 mg/kg peroral dose; assay type: functional; settings: route oral
Rattus norvegicus [25] = assay: Percentage change in body weight of rats in streptococcal cell wall-washed arthritis model at 10.0 mg/kg peroral dose; assay type: functional; settings: route oral
Canis familiaris [26] = assay: Emetic effect in dogs on intravenous dose (4/4); assay type: functional; settings: Canis lupus familiaris
Canis familiaris [27] = assay: Emetic effect in dogs on intravenous dose (2/2); assay type: functional; settings: Canis lupus familiaris

| Structure (SMILES) | inhibition in vivo at 50 mg/kg (Mus musculus [1]) | IC50 (Phosphodiesterase 4 [2]) | Ki (Phosphodiesterase 4 [3]) | other results |
| --- | --- | --- | --- | --- |
| Cc1cn(Cc2ccc(S(C)(=O)=O)cc2)c2cc(C(=O)Nc3c(Cl)c[n+]([O-])cc3Cl)ccc12 | 38% | 260 nM | 1124 nM |  |
| Cc1cn(CCCc2ccccc2)c2cc(C(=O)Nc3c(Cl)c[n+]([O-])cc3Cl)ccc12 | 34% | 7 nM | 30 nM |  |
| Cc1cn(Cc2ccc(C(=O)O)cc2)c2cc(C(=O)Nc3c(Cl)c[n+]([O-])cc3Cl)ccc12 |  | 1400 nM | 3184 nM |  |
| Cc1cn(C2CCCCC2)c2cc(C(=O)Nc3c(Cl)c[n+]([O-])cc3Cl)ccc12 |  | 19 nM | 38 nM |  |
| Cc1cn(CC2CCCCCC2)c2cc(C(=O)Nc3c(Cl)c[n+]([O-])cc3Cl)ccc12 |  | 20 nM | 30 nM | inhibition in vivo at 10 mg/kg (Mus musculus [4]): 8% |
| Cc1cn(CCC2CCCCC2)c2cc(C(=O)Nc3c(Cl)c[n+]([O-])cc3Cl)ccc12 |  | 4.1 nM | 12 nM | ED50 (Mus musculus [5]): 7.4 mg/kg; ED50 (Canis familiaris [6]): 1 mg/kg |
| Cc1cn(Cc2ccccc2)c2cc(C(=O)Nc3c(Cl)c[n+]([O-])cc3Cl)ccc12 |  | 8 nM | 60 nM | bioavailability [7]: 33%; ED50 (Mus musculus [5]): 20 mg/kg; Tmax [8]: 0.25 h; AUC [9]: 669 ng·h/mL; half-life [10]: 3.7 h; Cmax [11]: 393 ng/mL; Vd [12]: 0.9 L/kg; clearance [13]: 8.33 mL/min/kg; half-life [14]: 5.1 h; AUC [15]: 2020 ng·h/mL; ED50 (Canis familiaris [16]): 3 mg/kg |
| Cc1cn(Cc2ccc3c(c2)OCO3)c2cc(C(=O)Nc3c(Cl)c[n+]([O-])cc3Cl)ccc12 | 40% | 24 nM | 86 nM |  |
| Cc1cn(CC(C)C)c2cc(C(=O)Nc3c(Cl)c[n+]([O-])cc3Cl)ccc12 |  | 38 nM | 116 nM | inhibition in vivo at 10 mg/kg (Mus musculus [4]): 0% |
| Cc1cn(Cc2ccc(Cl)cc2)c2cc(C(=O)Nc3c(Cl)c[n+]([O-])cc3Cl)ccc12 | 10% | 12 nM | 71 nM |  |
| Cc1noc(C)c1Cn1cc(C)c2ccc(C(=O)Nc3c(Cl)c[n+]([O-])cc3Cl)cc21 | 40% | 500 nM | 225 nM |  |
| Cc1cn(CCCCc2ccccc2)c2cc(C(=O)Nc3c(Cl)c[n+]([O-])cc3Cl)ccc12 |  | 46 nM | 135 nM | inhibition in vivo at 10 mg/kg (Mus musculus [4]): 53% |
| Cc1cn(CC2CCCCC2)c2cc(C(=O)Nc3c(Cl)cncc3Cl)ccc12 | 0% |  |  |  |
| Cc1cn(Cc2ccccc2)c2cc(C(=O)Nc3c(Cl)cncc3Cl)ccc12 | 0% |  |  |  |
| Cc1cn(CC2CCCCC2)c2cc(C(=O)Nc3c(Cl)c[n+]([O-])cc3Cl)ccc12 |  | 30 nM | 86 nM | bioavailability [7]: 96%; Change (Rattus norvegicus [17]): -13%; Mean AUC (Rattus norvegicus [18]): 3.3; inhibition in vivo at 10 mg/kg (Rattus norvegicus [19]): 33%; ED50 (Mus musculus [5]): 7.1 mg/kg; Tmax [8]: 1 h; Mean AUC (Rattus norvegicus [20]): 3.7; AUC [9]: 3140 ng·h/mL; inhibition in vivo at 3 mg/kg (Rattus norvegicus [21]): 25%; half-life [10]: 2.5 h; Cmax [11]: 439 ng/mL; Vd [12]: 1.7 L/kg; inhibition in vivo at 30 mg/kg (Rattus norvegicus [22]): 77%; clearance [13]: 5 mL/min/kg; Mean AUC (Rattus norvegicus [23]): 1.1; half-life [14]: 3.6 h; AUC [15]: 3260 ng·h/mL; Change (Rattus norvegicus [24]): -5%; ED50 (Canis familiaris [16]): > 0.8 mg/kg; Change (Rattus norvegicus [25]): -7% |
| Cc1cn(Cc2nccn2Cc2ccccc2)c2cc(C(=O)Nc3c(Cl)c[n+]([O-])cc3Cl)ccc12 | 38% | 420 nM | 393 nM |  |
| Cc1nc(Cn2cc(C)c3ccc(C(=O)Nc4c(Cl)c[n+]([O-])cc4Cl)cc32)cs1 | 52% | 80 nM | 64 nM |  |
| Cc1cn(Cc2ccc3ccccc3c2)c2cc(C(=O)Nc3c(Cl)c[n+]([O-])cc3Cl)ccc12 |  | 22 nM | 51 nM |  |
| Cc1cn(CCCC2CCCCC2)c2cc(C(=O)Nc3c(Cl)c[n+]([O-])cc3Cl)ccc12 | 47% | 16 nM | 67 nM |  |
| Cc1cn(Cc2ccc(C(F)(F)F)cc2)c2cc(C(=O)Nc3c(Cl)c[n+]([O-])cc3Cl)ccc12 |  | 14 nM | 67 nM | ED50 (Mus musculus [5]): 10 mg/kg |
| COc1ccc(C(=O)Nc2c(Cl)cncc2Cl)cc1OC1CCCC1 |  |  |  | ED50 (Mus musculus [5]): 3.1 mg/kg; ED50 (Canis familiaris [26]): 0.6 mg/kg |
| COc1ccc(C2CNC(=O)C2)cc1OC1CCCC1 (configuration not stated) [ROLIPRAM] |  |  |  | ED50 (Mus musculus [5]): 8.2 mg/kg; ED50 (Canis familiaris [27]): 0.03 mg/kg |
